This note sets out measurements from ChEMBL document CHEMBL5696442, “Discovery of type II inhibitors of TGFβ-activated kinase 1 (TAK1) and mitogen-activated protein kinase kinase kinase kinase 2 (MAP4K2)” (J Med Chem, 2015).

The target in assay [1] is Glycogen synthase kinase-3 beta (Homo sapiens) (UniProt P49841). Kind of assay: Inhibition of GSK3B (unknown origin) at 1 uM by Ambit Kinomescan binding assay relative to control; values are per cent of control.
Assay [2] addresses Protein-tyrosine kinase 2-beta (Homo sapiens) (UniProt Q14289). Nature of the assay: Inhibition of PYK2 (unknown origin) at 1 uM by Ambit Kinomescan binding assay relative to control.
For assay [3], the target named is 5'-AMP-activated protein kinase catalytic subunit alpha-2 (Homo sapiens) (UniProt P54646). Nature of the assay: Inhibition of AMPKa2 Lys2 labeling site in human A-375 cells at 5 uM by KiNativ Profiling analysis relative to control. Type of assay: cell-based.
Assay [4] deals with eIF-2-alpha kinase GCN2 (Homo sapiens), Q9P2K8 [S808G]. Kind of assay: Inhibition of GCN2 kinase domain 2 S808G mutant (unknown origin) at 1 uM by Ambit Kinomescan binding assay relative to control.
Assay [5] has as its target Receptor-type tyrosine-protein kinase FLT3 (Homo sapiens) (UniProt P36888). Kind of assay: Inhibition of FLT3 (unknown origin) at 1 uM by Ambit Kinomescan binding assay relative to control; values are per cent of control.
Assay [6] deals with Ribosomal protein S6 kinase alpha-4 (Homo sapiens) (UniProt O75676). Nature of the assay: Inhibition of MSK2 domain1 Lys2 labeling site in human A-375 cells at 5 uM by KiNativ Profiling analysis relative to control. Type of assay: cell-based.
The target of assay [7] is Serine/threonine-protein kinase PLK1 (Homo sapiens) (UniProt P53350). Kind of assay: Inhibition of PLK1 Lys2 labeling site in human A-375 cells at 0.05 uM by KiNativ Profiling analysis relative to control. Format: cell-based.
For assay [8], the target named is Casein kinase I isoform delta (Homo sapiens) (UniProt P48730). Kind of assay: Inhibition of CSNK1D (unknown origin) at 10 uM by Ambit Kinomescan binding assay.
In assay [9] the target is Cyclin-dependent kinase 14 (Homo sapiens) (UniProt O94921). Kind of assay: Inhibition of PFTAIRE1 Lys1 labeling site in human A-375 cells at 5 uM by KiNativ Profiling analysis relative to control.
The target in assay [10] is Dual specificity mitogen-activated protein kinase kinase 2 (Homo sapiens) (UniProt P36507). Kind of assay: Inhibition of MAP2K2 Lys1 labeling site in human A-375 cells at 5 uM by KiNativ Profiling analysis relative to control. Type of assay: cell-based.
Assay [11] has as its target Serine/threonine-protein kinase A-Raf (Homo sapiens) (UniProt P10398). Kind of assay: Inhibition of ARAF Lys2 labeling site in human A-375 cells at 0.5 uM by KiNativ Profiling analysis relative to control. Type of assay: cell-based.
Assay [12] addresses Ephrin type-A receptor 2 (Homo sapiens, UniProt P29317). Nature of the assay: Inhibition of EphA2 ACT labeling site in human A-375 cells at 5 uM by KiNativ Profiling analysis relative to control. Format: cell-based.
The target of assay [13] is T1, Dual specificity mitogen-activated protein kinase kinase 6 (Homo sapiens) (UniProt P52564).
T1 sequence (whole entry): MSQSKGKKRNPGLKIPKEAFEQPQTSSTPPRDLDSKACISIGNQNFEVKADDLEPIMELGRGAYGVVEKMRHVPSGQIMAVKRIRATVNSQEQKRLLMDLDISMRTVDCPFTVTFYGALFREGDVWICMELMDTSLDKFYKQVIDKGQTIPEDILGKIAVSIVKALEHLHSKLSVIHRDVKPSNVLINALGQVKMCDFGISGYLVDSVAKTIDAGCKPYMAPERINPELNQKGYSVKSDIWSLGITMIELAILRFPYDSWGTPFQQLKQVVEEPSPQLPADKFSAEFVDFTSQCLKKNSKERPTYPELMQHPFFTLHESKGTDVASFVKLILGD
Kind of assay: Inhibition of MAP2K6 Lys2 labeling site in human A-375 cells at 0.05 uM by KiNativ Profiling analysis relative to control. Type of assay: cell-based.

For assay [14], the target named is Serine/threonine-protein kinase ATR (Homo sapiens) (UniProt Q13535). Kind of assay: Inhibition of ATR in human Huh-7 cells at 1 uM by KiNativ Profiling analysis relative to control. Type of assay: cell-based.
Assay [15] addresses Rho-associated protein kinase 1 (Homo sapiens) (UniProt Q13464). Kind of assay: Inhibition of ROCK1 in human Huh-7 cell lysate at 1 uM by KiNativ Profiling analysis relative to control. Format: subcellular.
Assay [16] concerns the target T2, Serine/threonine-protein kinase D2 (Homo sapiens) (UniProt Q9BZL6).
T2 sequence (whole entry): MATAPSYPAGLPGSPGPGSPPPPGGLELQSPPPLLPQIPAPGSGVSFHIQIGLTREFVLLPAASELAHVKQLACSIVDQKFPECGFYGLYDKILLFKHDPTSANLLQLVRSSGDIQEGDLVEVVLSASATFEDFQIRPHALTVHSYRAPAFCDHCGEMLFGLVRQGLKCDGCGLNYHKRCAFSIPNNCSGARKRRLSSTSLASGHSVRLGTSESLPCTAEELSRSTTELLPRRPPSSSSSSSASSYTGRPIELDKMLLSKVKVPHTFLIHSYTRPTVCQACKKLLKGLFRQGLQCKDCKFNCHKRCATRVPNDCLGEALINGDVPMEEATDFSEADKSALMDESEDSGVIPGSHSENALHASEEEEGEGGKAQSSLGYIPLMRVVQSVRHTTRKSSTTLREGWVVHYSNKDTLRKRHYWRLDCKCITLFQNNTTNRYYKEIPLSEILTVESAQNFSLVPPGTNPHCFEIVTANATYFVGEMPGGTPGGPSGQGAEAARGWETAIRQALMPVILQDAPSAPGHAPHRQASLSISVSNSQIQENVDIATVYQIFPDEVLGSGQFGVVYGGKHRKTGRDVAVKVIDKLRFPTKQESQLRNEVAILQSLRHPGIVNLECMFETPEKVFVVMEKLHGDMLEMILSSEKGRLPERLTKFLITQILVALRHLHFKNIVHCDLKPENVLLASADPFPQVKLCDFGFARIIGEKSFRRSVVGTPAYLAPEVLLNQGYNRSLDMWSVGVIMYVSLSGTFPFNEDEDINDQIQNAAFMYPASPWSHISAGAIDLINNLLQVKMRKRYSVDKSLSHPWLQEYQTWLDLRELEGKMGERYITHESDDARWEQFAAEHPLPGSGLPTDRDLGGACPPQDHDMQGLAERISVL
Kind of assay: Inhibition of PKD2 Lys2 labeling site in human Huh-7 cells at 1 uM by KiNativ Profiling analysis relative to control. Format: cell-based.

The target of assay [17] is Cyclin-dependent kinase 1 (Homo sapiens) (UniProt P06493). Nature of the assay: Inhibition of CDC2 Lys1 labeling site in human Huh-7 cell lysate at 1 uM by KiNativ Profiling analysis relative to control. Format: subcellular.
Assay [18] concerns the target Ribosomal protein S6 kinase alpha-3 (Homo sapiens) (UniProt P51812). Nature of the assay: Inhibition of RSK2 domain1 ATP labeling site in human Huh-7 cell lysate at 1 uM by KiNativ Profiling analysis relative to control. Type of assay: subcellular.

Activity calls are given as the source filed them. The rule behind the calls is not given here.

Chain of Cyclin-dependent kinase 14 (Homo sapiens) (O94921 whole entry, looked up): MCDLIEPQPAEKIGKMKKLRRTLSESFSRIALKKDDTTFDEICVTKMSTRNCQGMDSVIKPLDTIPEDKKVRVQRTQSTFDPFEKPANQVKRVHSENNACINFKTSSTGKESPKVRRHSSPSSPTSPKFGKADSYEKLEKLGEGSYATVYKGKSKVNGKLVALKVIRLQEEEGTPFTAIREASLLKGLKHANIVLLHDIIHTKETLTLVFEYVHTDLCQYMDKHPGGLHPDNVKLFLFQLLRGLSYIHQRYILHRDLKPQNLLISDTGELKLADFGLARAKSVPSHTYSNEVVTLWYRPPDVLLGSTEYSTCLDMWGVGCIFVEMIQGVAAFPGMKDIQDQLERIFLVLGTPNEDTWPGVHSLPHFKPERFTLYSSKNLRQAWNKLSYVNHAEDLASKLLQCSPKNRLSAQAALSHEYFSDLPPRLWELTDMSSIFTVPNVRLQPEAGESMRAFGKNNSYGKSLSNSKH
Chain of Casein kinase I isoform delta (Homo sapiens) (P48730 whole entry, looked up, canonical isoform): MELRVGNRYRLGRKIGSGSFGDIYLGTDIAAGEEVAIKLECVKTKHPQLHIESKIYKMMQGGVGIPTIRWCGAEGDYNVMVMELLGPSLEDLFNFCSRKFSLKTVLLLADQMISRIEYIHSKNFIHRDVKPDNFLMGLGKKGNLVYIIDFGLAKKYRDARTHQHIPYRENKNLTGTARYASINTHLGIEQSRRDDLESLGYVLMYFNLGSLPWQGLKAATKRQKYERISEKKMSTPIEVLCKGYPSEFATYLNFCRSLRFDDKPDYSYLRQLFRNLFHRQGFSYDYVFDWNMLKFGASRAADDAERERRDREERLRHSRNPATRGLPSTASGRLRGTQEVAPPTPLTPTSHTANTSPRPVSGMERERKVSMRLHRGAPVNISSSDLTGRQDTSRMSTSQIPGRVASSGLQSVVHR
Chain of Rho-associated protein kinase 1 (Homo sapiens) (Q13464 2-1354 limits assumed): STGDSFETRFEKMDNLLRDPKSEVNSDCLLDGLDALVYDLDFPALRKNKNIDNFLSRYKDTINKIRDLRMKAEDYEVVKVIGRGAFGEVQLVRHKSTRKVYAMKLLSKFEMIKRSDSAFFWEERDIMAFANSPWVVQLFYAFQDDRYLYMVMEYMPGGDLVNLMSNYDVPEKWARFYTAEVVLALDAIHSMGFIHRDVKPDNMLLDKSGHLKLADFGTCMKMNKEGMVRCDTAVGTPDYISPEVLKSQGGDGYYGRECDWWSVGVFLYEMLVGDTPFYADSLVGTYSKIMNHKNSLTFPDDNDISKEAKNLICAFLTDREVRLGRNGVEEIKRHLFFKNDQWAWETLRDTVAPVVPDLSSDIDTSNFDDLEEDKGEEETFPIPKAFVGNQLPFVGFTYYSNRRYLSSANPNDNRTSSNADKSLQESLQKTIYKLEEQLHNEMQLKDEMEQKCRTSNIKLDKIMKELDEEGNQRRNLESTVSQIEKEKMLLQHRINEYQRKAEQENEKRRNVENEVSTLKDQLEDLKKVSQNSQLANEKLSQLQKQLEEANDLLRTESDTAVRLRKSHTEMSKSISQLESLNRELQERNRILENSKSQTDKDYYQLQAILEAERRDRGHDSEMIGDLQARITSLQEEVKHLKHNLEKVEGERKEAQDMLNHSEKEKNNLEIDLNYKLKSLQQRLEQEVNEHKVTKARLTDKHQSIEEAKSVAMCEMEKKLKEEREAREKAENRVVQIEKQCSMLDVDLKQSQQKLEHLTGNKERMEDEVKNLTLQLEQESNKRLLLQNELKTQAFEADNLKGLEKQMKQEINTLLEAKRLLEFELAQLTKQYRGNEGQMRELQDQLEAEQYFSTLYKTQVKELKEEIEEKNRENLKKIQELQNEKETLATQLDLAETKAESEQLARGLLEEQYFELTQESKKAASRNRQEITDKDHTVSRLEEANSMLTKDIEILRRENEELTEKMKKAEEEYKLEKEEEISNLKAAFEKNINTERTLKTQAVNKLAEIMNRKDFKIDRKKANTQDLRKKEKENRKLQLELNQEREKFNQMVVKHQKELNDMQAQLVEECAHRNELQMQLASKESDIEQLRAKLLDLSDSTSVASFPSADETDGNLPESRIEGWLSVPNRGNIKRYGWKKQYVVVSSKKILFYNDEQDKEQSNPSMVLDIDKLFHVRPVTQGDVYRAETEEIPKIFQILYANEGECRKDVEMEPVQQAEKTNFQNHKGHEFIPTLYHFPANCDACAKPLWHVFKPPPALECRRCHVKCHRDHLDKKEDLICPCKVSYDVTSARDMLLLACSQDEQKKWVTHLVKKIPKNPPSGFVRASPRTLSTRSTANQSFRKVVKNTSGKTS
Chain of eIF-2-alpha kinase GCN2 (Homo sapiens), Q9P2K8 [S808G] (Q9P2K8 whole entry S808G, the tested form may be a part): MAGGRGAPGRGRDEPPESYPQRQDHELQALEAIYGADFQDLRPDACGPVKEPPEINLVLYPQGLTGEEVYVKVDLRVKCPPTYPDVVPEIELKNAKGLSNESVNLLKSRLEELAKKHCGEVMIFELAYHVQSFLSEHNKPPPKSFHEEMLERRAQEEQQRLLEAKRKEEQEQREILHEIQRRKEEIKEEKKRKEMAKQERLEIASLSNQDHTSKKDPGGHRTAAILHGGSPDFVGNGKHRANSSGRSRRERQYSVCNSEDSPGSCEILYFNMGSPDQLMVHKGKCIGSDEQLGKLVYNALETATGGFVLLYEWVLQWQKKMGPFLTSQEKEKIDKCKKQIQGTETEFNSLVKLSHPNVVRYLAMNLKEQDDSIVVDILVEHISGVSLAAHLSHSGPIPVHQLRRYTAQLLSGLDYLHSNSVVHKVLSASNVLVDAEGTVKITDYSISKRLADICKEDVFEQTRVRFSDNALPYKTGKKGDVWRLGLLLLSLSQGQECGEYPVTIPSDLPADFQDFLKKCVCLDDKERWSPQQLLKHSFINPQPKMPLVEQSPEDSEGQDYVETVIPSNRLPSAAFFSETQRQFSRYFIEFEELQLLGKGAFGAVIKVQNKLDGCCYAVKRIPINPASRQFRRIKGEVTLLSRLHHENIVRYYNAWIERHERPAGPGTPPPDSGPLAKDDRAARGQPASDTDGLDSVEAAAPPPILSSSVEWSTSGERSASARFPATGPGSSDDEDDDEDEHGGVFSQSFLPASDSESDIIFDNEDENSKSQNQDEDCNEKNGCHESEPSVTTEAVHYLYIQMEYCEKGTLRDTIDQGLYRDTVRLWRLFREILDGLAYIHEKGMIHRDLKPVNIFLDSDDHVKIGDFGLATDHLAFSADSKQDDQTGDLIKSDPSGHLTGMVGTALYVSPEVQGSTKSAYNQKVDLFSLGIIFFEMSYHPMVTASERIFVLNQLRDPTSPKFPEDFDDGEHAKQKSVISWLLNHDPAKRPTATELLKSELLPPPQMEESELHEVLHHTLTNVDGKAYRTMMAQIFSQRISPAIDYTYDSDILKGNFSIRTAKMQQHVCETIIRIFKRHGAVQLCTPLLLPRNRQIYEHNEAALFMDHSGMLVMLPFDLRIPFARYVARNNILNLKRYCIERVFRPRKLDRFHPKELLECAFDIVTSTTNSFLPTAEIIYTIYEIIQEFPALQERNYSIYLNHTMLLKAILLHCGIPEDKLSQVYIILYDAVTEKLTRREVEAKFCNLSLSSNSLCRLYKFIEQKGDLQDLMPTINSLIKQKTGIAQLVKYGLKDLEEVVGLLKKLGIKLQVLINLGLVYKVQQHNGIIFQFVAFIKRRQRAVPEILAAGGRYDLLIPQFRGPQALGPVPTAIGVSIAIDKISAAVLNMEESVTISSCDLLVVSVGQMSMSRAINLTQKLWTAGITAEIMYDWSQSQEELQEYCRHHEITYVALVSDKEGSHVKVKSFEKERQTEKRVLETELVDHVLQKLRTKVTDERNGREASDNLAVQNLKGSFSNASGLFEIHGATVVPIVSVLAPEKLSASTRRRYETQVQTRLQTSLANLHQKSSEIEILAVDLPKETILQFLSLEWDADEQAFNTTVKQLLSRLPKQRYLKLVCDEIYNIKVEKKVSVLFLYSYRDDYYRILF
Chain of Ephrin type-A receptor 2 (P29317 whole entry): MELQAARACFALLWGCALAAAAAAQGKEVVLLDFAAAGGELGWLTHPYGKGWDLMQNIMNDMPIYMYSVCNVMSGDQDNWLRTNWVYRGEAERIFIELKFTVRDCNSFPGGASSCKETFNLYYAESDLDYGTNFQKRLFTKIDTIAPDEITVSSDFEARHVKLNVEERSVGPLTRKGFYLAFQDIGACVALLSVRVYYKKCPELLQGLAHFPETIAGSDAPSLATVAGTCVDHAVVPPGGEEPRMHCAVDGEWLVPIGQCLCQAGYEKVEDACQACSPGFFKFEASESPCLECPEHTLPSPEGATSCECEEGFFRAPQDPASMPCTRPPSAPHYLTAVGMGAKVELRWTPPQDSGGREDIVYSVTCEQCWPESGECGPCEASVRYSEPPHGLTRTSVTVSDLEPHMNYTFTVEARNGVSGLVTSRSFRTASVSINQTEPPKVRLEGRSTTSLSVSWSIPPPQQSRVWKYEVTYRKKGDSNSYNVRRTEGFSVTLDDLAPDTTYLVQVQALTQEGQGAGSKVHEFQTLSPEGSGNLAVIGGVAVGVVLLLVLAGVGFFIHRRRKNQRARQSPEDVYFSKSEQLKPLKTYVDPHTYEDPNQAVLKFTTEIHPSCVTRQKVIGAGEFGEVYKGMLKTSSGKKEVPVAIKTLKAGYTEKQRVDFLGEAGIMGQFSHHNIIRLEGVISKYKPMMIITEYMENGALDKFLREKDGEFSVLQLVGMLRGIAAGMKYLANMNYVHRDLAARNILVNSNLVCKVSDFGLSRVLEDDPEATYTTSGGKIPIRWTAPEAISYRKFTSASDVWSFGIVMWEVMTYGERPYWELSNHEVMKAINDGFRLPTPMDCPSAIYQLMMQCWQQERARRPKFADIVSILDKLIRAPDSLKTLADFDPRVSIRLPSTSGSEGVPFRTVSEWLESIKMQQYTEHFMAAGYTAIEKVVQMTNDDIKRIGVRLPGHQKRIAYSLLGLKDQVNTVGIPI

For the compound `CCN1CCN(Cc2ccc(NC(=O)c3ccc(C)c(/C=C/c4cnc5[nH]ccc5c4OC)c3)cc2C(F)(F)F)CC1`, the residual activity stood at 100% in assay [1] and 0.15% in assay [5]. Besides, the inhibition in [2] amounted to 19%; in [3] it was 18.5%; in assay [4], 11%; in [6], 9%; in assay [7], 1.3%.
With `CCN1CCN(Cc2ccc(NC(=O)c3ccc(C)c(Oc4ccnc5[nH]ccc45)c3)cc2C(F)(F)F)CC1`, the inhibition result in assay [8] is “inactive”. Moreover, the inhibition in [9] is 81%; in [10] it was 1.3%; in assay [11] it was 18.4%; in [12] it was 57.7%; in assay [13] it was -8.5%.
Take `CNc1cc(Oc2cc(C(=O)Nc3cc(N4CCN(C)CC4)cc(C(F)(F)F)c3)ccc2C)ncn1`: the inhibition is 29.3% in [14]; 7.6% in assay [15]; 9% in [16]; 21.5% in assay [17]; -2.6% in assay [18].
